Patent EP2295964A1, “Irrigation solution” (priority 2009, dated 2011)

Conditions: human, in vivo, iv
Description: The kinetics of the glucose infusion was studied to characterize how effectively the volunteers handled the glucose molecules as well as the accompanying water volume. […] 2003, 90, 600-607, in which the plasma concentration of glucose above baseline (C) at any time (t) resulting from the infusion rate ki is calculated by using the following differential equation: (dC)/(dt) = (ki -(CL×C(t)))/(Vd) [formula] in which Vd is the volume of distribution and CL is the glucose clearance.
The data were normally distributed and thus results were expressed as the mean and standard deviation (SD). Correlations were evaluated by linear regression analysis. P < 0.05 was considered statistically significant.

Vd, volume of distribution of exogenous glucose: 15.52 L
Substance: D-glucose
